Experimental data as given in ChEMBL document CHEMBL1152141, “Pyrrolo-pyrimidones: a novel class of MK2 inhibitors with potent cellular activity” (Bioorg Med Chem Lett, 2008).
In brackets after ≈: the same amount, converted by molar mass. Blank lines part the entries; values can stand above or below the compound they belong to.

Legend:
PBMC = assay: Inhibition of LPS-stimulated TNFalpha release from human PBMC after 3 hrs
[1] = target: Glycogen synthase kinase-3 beta (Homo sapiens, UniProt P49841); assay: Inhibition of GSK3b
Ephrin type-B receptor 4 = Ephrin type-B receptor 4 (Homo sapiens, UniProt P54760); assay: Inhibition of EphB4
Ephrin type-B receptor 4, sequence (P54760 whole entry): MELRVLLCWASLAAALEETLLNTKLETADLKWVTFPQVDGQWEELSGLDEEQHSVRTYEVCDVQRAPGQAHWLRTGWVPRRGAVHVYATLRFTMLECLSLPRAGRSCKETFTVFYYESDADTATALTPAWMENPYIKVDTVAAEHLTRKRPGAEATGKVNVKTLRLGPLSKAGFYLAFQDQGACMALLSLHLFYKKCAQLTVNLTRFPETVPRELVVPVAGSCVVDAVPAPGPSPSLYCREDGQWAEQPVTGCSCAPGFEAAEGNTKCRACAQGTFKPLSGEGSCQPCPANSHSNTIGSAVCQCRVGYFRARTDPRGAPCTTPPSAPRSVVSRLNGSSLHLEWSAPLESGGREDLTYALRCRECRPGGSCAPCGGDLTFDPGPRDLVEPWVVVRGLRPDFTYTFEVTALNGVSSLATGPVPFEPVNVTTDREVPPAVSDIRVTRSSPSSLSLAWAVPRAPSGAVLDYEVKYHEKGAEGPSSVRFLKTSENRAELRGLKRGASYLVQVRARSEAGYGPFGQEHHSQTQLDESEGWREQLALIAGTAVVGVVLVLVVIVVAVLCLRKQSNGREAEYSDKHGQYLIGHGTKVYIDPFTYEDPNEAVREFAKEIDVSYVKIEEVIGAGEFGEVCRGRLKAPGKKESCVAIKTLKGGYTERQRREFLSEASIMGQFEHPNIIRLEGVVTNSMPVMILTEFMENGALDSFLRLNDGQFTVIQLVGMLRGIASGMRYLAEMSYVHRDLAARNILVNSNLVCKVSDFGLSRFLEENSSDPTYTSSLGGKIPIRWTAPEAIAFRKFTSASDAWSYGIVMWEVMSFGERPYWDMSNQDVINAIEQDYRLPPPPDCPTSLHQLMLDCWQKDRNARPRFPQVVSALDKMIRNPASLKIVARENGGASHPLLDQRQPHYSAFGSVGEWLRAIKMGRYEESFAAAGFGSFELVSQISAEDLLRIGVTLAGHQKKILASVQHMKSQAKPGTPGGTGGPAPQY

[2] = Inhibition of PKA
[3] = target: Mitogen-activated protein kinase 8 (Homo sapiens, UniProt P45983); assay: Inhibition of JNK1
Mitogen-activated protein kinase 8, sequence (P45983 whole entry): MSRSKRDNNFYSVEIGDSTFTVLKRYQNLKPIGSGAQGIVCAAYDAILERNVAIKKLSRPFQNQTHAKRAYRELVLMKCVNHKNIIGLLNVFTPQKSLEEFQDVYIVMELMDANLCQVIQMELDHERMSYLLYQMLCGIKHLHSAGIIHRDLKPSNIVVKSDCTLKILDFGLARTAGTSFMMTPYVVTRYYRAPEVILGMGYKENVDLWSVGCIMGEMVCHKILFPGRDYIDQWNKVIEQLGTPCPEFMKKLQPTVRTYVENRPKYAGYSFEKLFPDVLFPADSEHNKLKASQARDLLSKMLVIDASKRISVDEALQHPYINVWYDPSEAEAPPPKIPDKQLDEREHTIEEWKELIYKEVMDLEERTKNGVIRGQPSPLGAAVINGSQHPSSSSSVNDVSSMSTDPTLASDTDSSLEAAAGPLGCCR

[4] = target: Tyrosine-protein kinase JAK3 (Homo sapiens, UniProt P52333); assay: Inhibition of JAK3
Tyrosine-protein kinase JAK3, sequence (P52333 whole entry): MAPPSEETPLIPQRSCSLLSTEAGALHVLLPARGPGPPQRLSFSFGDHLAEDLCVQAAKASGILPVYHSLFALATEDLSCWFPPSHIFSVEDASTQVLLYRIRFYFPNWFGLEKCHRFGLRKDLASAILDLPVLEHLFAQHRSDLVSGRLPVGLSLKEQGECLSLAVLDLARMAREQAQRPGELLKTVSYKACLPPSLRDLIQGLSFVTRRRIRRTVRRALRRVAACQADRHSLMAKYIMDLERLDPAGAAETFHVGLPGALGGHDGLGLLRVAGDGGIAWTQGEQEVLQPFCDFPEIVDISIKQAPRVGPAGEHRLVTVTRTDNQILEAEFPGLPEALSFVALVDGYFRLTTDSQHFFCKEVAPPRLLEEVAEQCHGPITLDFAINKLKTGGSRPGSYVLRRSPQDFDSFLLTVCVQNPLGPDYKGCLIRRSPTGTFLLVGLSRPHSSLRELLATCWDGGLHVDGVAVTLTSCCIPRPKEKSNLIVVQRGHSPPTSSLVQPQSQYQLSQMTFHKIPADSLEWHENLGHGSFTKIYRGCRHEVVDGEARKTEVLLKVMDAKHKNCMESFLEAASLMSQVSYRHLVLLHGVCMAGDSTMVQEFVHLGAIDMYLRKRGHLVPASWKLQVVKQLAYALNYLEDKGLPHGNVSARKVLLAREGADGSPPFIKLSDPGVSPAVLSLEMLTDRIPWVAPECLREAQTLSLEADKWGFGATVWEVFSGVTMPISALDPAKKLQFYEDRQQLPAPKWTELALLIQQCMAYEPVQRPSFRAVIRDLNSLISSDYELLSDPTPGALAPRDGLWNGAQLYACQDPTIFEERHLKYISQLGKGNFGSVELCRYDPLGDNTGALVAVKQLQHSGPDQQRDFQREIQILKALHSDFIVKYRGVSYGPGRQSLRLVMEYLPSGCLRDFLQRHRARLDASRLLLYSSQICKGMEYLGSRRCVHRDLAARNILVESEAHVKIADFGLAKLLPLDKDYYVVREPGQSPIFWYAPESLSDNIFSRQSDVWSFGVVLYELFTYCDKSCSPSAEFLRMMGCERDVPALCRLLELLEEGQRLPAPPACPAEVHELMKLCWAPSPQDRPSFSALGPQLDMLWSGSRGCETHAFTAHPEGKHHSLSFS

MAP kinase p38 = MAP kinase p38 (Homo sapiens, UniProt O15264+Q15759+Q16539+P53778); assay: Inhibition of human p38; format: protein assay
Aurora kinase A = Aurora kinase A (Homo sapiens, UniProt O14965); assay: Inhibition of Aurora A
Aurora kinase A, sequence (O14965 whole entry): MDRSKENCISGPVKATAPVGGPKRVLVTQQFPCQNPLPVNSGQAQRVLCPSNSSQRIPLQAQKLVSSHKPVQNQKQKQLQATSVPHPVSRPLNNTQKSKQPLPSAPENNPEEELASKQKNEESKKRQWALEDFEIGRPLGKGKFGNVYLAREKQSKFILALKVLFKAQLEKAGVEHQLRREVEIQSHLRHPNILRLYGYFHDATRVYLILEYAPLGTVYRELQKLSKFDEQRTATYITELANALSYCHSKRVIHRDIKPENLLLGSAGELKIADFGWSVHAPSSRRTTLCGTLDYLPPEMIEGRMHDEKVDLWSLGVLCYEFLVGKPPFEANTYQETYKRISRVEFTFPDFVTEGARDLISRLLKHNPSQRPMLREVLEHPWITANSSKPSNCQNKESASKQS

[5] = target: RAC-alpha serine/threonine-protein kinase (Homo sapiens, UniProt P31749); assay: Inhibition of PKB
Insulin receptor = Insulin receptor (Homo sapiens, UniProt P06213); assay: Inhibition of Ins1R
[6] = Thermodynamic solubility at pH 6.8; format: physicochemical; conditions: buffer
[7] = target: Receptor tyrosine-protein kinase erbB-2 (Homo sapiens, UniProt P04626); assay: Inhibition of HER2
[8] = target: Cyclin-dependent kinase 2 (Homo sapiens, UniProt P24941); assay: Inhibition of CDK2
[9] = target: Tyrosine-protein kinase BTK (Homo sapiens, UniProt Q06187); assay: Inhibition of Btk
Ephrin type-A receptor 4 = Ephrin type-A receptor 4 (Homo sapiens, UniProt P54764); assay: Inhibition of EphA4
[10] = target: MAP kinase-activated protein kinase 5 (Homo sapiens, UniProt Q8IW41); assay: Inhibition of MK5
[11] = target: Insulin-like growth factor 1 receptor (Homo sapiens, UniProt P08069); assay: Inhibition of IGF1R
Insulin-like growth factor 1 receptor, sequence (P08069 31-736 limits assumed): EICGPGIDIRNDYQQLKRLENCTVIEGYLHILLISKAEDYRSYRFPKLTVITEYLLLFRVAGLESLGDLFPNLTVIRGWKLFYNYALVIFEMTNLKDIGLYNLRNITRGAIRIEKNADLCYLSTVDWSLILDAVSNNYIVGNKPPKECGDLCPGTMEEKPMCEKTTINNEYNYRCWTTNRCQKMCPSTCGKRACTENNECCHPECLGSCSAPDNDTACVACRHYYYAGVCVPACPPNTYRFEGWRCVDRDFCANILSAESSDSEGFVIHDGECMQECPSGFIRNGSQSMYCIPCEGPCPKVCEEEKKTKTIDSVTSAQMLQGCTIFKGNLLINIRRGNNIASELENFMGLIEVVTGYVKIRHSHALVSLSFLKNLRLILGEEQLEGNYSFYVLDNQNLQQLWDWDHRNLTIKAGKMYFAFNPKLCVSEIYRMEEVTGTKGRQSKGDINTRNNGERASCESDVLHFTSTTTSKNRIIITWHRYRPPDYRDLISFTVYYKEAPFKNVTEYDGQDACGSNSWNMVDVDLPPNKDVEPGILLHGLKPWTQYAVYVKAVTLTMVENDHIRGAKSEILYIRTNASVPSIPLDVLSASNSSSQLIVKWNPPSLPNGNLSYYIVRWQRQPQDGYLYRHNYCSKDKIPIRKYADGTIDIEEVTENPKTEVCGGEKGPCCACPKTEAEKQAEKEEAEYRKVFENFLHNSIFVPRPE
Insulin-like growth factor 1 receptor, sequence (P08069 741-1367 limits assumed): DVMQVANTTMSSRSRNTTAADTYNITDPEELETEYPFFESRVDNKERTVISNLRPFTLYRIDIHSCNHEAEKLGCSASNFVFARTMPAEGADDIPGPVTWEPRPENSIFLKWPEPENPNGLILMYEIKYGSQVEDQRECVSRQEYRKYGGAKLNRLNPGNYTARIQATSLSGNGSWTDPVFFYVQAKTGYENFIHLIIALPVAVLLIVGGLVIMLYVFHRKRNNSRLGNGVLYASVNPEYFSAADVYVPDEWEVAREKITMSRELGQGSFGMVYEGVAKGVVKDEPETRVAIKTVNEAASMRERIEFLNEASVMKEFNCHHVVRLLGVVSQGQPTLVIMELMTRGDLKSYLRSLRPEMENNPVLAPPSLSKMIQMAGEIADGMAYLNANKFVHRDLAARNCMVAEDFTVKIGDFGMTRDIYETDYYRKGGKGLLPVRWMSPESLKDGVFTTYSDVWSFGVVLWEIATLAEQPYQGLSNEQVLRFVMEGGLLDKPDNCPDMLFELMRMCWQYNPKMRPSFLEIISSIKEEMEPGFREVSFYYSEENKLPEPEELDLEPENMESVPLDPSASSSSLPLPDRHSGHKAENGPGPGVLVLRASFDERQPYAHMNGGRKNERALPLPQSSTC

[12] = target: Vascular endothelial growth factor receptor 2 (Homo sapiens, UniProt P35968); assay: Inhibition of KDR
[13] = target: Tyrosine-protein kinase JAK2 (Homo sapiens, UniProt O60674); assay: Inhibition of JAK2
[14] = target: Fibroblast growth factor receptor 4 (Homo sapiens, UniProt P22455); assay: Inhibition of FGFR4
[15] = target: Epidermal growth factor receptor (Homo sapiens, UniProt P00533)
[16] = target: Mast/stem cell growth factor receptor Kit (Homo sapiens, UniProt P10721); assay: Inhibition of c-Kit
[17] = target: Hepatocyte growth factor receptor (Homo sapiens, UniProt P08581); assay: Inhibition of c-Met
[18] = target: MAP kinase-activated protein kinase 2 (Homo sapiens, UniProt P49137)
[19] = target: ALK tyrosine kinase receptor (Homo sapiens, UniProt Q9UM73); assay: Inhibition of Alk
[20] = target: Mitogen-activated protein kinase 1 (Homo sapiens, UniProt P28482); assay: Inhibition of ERK2
[21] = target: Heat shock protein beta-1 (Homo sapiens) (UniProt P04792); assay: Inhibition of LPS-stimulated hsp27 phosphorylation in 1 hr pretreated human THP1 cells by Western blot; format: cell-based; conditions: THP-1
Heat shock protein beta-1 (Homo sapiens), sequence (P04792 whole entry): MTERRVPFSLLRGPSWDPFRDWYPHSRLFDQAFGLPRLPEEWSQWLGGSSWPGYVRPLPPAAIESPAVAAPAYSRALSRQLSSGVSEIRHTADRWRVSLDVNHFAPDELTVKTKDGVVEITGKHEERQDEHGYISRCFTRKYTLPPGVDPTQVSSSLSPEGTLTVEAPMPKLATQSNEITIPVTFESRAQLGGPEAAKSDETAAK

[22] = target: Mitogen-activated protein kinase 9 (Homo sapiens, UniProt P45984); assay: Inhibition of JNK2
Mitogen-activated protein kinase 9, sequence (P45984 whole entry): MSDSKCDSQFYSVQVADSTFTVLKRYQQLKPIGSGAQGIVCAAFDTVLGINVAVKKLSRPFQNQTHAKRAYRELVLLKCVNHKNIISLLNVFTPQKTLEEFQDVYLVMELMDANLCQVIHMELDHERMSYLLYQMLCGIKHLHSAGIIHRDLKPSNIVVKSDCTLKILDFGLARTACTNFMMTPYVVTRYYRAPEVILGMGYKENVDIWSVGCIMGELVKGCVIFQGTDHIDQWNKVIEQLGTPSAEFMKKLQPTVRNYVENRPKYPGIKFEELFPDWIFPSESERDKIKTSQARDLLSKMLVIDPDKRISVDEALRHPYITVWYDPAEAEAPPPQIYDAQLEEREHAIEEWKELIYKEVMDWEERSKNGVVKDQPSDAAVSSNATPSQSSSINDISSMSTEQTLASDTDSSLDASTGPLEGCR

[23] = target: Tyrosine-protein kinase SYK (Homo sapiens, UniProt P43405)

Compound: O=c1[nH]cnc2[nH]c(-c3ccnc(/C=C/c4ccccc4)c3)cc12
IC50 (PBMC): 2.3 µM

Compound: CCN(CC)Cc1ccc(/C=C/c2cc(-c3cc4c(=O)[nH]cnc4[nH]3)ccn2)cc1
IC50 (PBMC): 0.38 µM

Compound: CN(C)CCOc1ccc(/C=C/c2cc(-c3cc4c(=O)[nH]cnc4[nH]3)ccn2)cc1
IC50 [1]: 0.53 µM
IC50 (Ephrin type-B receptor 4): 1.4 µM
IC50 [2]: > 10 µM
IC50 (PBMC): 0.04 µM
IC50 [3]: 0.96 µM
IC50 [4]: 1 µM
IC50 (MAP kinase p38): > 10 µM
IC50 (Aurora kinase A): 0.28 µM
IC50 [5]: > 10 µM
IC50 (Insulin receptor): 7.8 µM
solubility thermodynamic [6]: 410 µg/mL (≈ 1020 µM)
IC50 [7]: 9.5 µM
IC50 [8]: 8.2 µM
IC50 [9]: > 10 µM
IC50 (Ephrin type-A receptor 4): 5.6 µM
IC50 [10]: 0.028 µM
IC50 [11]: 6.4 µM
IC50 [12]: 0.19 µM
IC50 [13]: 3.6 µM
IC50 [14]: 6.8 µM
IC50 [15]: 3.3 µM
IC50 [16]: 6.1 µM
IC50 [17]: 0.14 µM
IC50 [18]: 0.082 µM
IC50 [19]: 4.1 µM
IC50 [20]: 2.6 µM
Activity [21]: Dose-dependent effect
IC50 [22]: 0.24 µM

Compound: Nc1nc2[nH]c(-c3ccnc(/C=C/c4ccccc4)c3)cc2c(=O)[nH]1
IC50 (PBMC): 1.5 µM

Compound: O=C(Nc1cc(-c2cc3c(=O)[nH]cnc3[nH]2)ccn1)c1ccc(C2CCCC2)cc1
IC50 (PBMC): 10 µM

Compound: COc1ccc(-c2cc(-c3cc4c(=O)[nH]cnc4[nH]3)ccn2)cc1
IC50 (PBMC): > 10 µM

solubility thermodynamic [6]: 9 µg/mL (≈ 21.1 µM)
Compound: O=C(c1ccc(/C=C/c2cc(-c3cc4c(=O)[nH]cnc4[nH]3)ccn2)cc1)N1CCOCC1
IC50 (PBMC): 0.15 µM

Compound: Cc1nc2[nH]c(-c3ccnc(/C=C/c4ccccc4)c3)cc2c(=O)[nH]1
IC50 (PBMC): 1.1 µM

IC50 [1]: 0.3 µM
IC50 (Ephrin type-B receptor 4): 1.7 µM
IC50 [2]: 6.7 µM
IC50 [3]: 4 µM
IC50 [4]: 0.31 µM
IC50 [23]: 6.2 µM
IC50 (MAP kinase p38): > 10 µM
IC50 (Aurora kinase A): 0.093 µM
IC50 [5]: > 10 µM
IC50 (Insulin receptor): > 10 µM
solubility thermodynamic [6]: 41 µg/mL (≈ 99.2 µM)
IC50 [7]: > 10 µM
IC50 [8]: > 10 µM
IC50 [9]: > 10 µM
IC50 (Ephrin type-A receptor 4): > 10 µM
IC50 [10]: 0.024 µM
IC50 [11]: > 10 µM
IC50 [12]: 0.1 µM
IC50 [13]: 1.3 µM
IC50 [14]: > 10 µM
IC50 [16]: 5.2 µM
IC50 [17]: 0.085 µM
IC50 [18]: 0.051 µM
IC50 [19]: > 10 µM
IC50 [20]: 1.1 µM
Activity [21]: Dose-dependent effect
IC50 [22]: 0.95 µM
Compound: O=c1[nH]cnc2[nH]c(-c3ccnc(/C=C/c4ccc(CN5CCOCC5)cc4)c3)cc12
IC50 (PBMC): 0.11 µM

Compound: O=c1[nH]c(Cc2ccccc2)nc2[nH]c(-c3ccnc(/C=C/c4ccccc4)c3)cc12
IC50 (PBMC): > 10 µM

solubility thermodynamic [6]: 3 µg/mL (≈ 9.03 µM)
Compound: O=c1[nH]cnc2[nH]c(-c3ccnc(/C=C/c4ccc(F)cc4)c3)cc12
IC50 (PBMC): 0.35 µM
